This note sets out measurements from ChEMBL document CHEMBL4406842, “Synthesis and in vitro biological evaluation of novel derivatives of Flexicaulin A condensation with amino acid trifluoroacetate” (Eur J Med Chem, 2019).

Usually IC50 stands for the midpoint of a concentration-inhibition curve.

Series [1] relates to TE-1. The series can be described thus: Antiproliferative activity against human TE1 cells assessed as reduction in cell viability incubated for 72 hrs by SRB assay. The series is classed as functional, cell-based. Conditions: TE-1, 72 h. (In SRB staining, fixed cells bind dye roughly in proportion to their protein.)
Series [2] relates to MCF7. The series can be described thus: Antiproliferative activity against human MCF7 cells assessed as reduction in cell viability incubated for 72 hrs by SRB assay. Conditions: MCF7, 72 h. In kind it is functional, cell-based.
For series [3], the system named is A549. In words: Antiproliferative activity against human A549 cells assessed as reduction in cell viability incubated for 72 hrs by SRB assay. Conditions: A549, 72 h. In kind it is functional, cell-based.
Series [4] has as its system MGC-803. The series can be described thus: Antiproliferative activity against human MGC803 cells assessed as reduction in cell viability incubated for 72 hrs by SRB assay. The settings on record: MGC-803, 72 h. In kind it is functional, cell-based.
Series [5] is described as follows: Solubility of compound in water. In kind it is physicochemical. The settings on record: buffer.

Regarding `C=C1C(=O)[C@]23[C@H](OC(=O)[C@H](CCSC)NC(=O)OC(C)(C)C)[C@H]1C[C@H](O)[C@H]2[C@]1(COC(C)=O)CCCC(C)(C)[C@H]1C[C@H]3OC`, the IC50 came to 1.33 µM in series [1], 2.27 µM in series [2], 4.63 µM in series [3] and 2.86 µM in series [4]. For the same molecule, the solubility result in series [5] is recorded as “Insoluble”.
As for `C=C1C(=O)[C@]23[C@H](OC(=O)CNC(=O)OC(C)(C)C)[C@H]1C[C@H](O)[C@H]2[C@]1(COC(C)=O)CCCC(C)(C)[C@H]1C[C@H]3OC`, the IC50 in series [1] is 1.64 µM; in series [2] it was 1.7 µM; in series [3] it was 4.24 µM; in series [4], 5.71 µM. Moreover, the solubility result in series [5] is reported as “Insoluble”.
As for `C=C1C(=O)[C@]23[C@H](OC(=O)CCCCN)[C@H]1C[C@H](O)[C@H]2[C@]1(COC(C)=O)CCCC(C)(C)[C@H]1C[C@H]3OC.O=C(O)C(F)(F)F`, the concentration for half-maximal inhibition (IC50) worked out at 3.16 µM in series [1], 7.89 µM in series [2], 1.62 µM in series [3] and 7.15 µM in series [4]. Also, the solubility entry in series [5] is on record as “Soluble”.
With `C=C1C(=O)[C@]23[C@H](OC(=O)[C@@H]4CCCN4)[C@H]1C[C@H](O)[C@H]2[C@]1(COC(C)=O)CCCC(C)(C)[C@H]1C[C@H]3OC.O=C(O)C(F)(F)F`, the IC50 in series [1] was 4.28 µM; in series [2], 5.1 µM; in series [3], 7.51 µM; in series [4] it was 5.02 µM. In series [5], the solubility entry is given as “Soluble”.
In the case of `C=C1C(=O)[C@]23[C@H](OC(=O)[C@@H](N)CCCC)[C@H]1C[C@H](O)[C@H]2[C@]1(COC(C)=O)CCCC(C)(C)[C@H]1C[C@H]3OC.O=C(O)C(F)(F)F`, the IC50 came to 2.64 µM in series [1], 2.51 µM in series [2], 1.54 µM in series [3] and 3.22 µM in series [4]. Moreover, in series [5], the solubility result is recorded as “Soluble”.
On to `C=C1C(=O)[C@]23[C@H](OC(=O)[C@@H]4CCCCN4C(=O)OC(C)(C)C)[C@H]1C[C@H](O)[C@H]2[C@]1(COC(C)=O)CCCC(C)(C)[C@H]1C[C@H]3OC`, for which the IC50 in series [1] amounted to 1.46 µM; in series [2] it was 2.69 µM; in series [3], 3.57 µM; in series [4], 3 µM. Also, the solubility entry in series [5] is on record as “Insoluble”.
Regarding `C=C1C(=O)[C@]23[C@H](OC(=O)[C@@H](NC(=O)OC(C)(C)C)c4ccccc4)[C@H]1C[C@H](O)[C@H]2[C@]1(COC(C)=O)CCCC(C)(C)[C@H]1C[C@H]3OC`, the IC50 in series [1] was 0.87 µM; in series [2], 1.58 µM; in series [3], 2.94 µM; in series [4] it was 2.21 µM. In series [5], the solubility entry is “Insoluble”.
As for `C=C1C(=O)[C@]23[C@H](OC(=O)[C@@H](N)C(C)C)[C@H]1C[C@H](O)[C@H]2[C@]1(COC(C)=O)CCCC(C)(C)[C@H]1C[C@H]3OC.O=C(O)C(F)(F)F`, the IC50 in series [1] worked out at 1.97 µM; in series [2], 1.27 µM; in series [3], 2.67 µM; in series [4], 0.99 µM. The solubility result in series [5] is “Soluble”.
On the same counts, the results for `C=C1C(=O)[C@]23[C@H](OC(=O)[C@@H](NC)C(C)C)[C@H]1C[C@H](O)[C@H]2[C@]1(COC(C)=O)CCCC(C)(C)[C@H]1C[C@H]3OC.O=C(O)C(F)(F)F` are 1.16 µM, 3.2 µM, 1.89 µM, 1.64 µM and “Soluble”.
In the case of `C=C1C(=O)[C@]23[C@H](OC(=O)CN(C)C(=O)OC(C)(C)C)[C@H]1C[C@H](O)[C@H]2[C@]1(COC(C)=O)CCCC(C)(C)[C@H]1C[C@H]3OC`, the half-inhibitory concentration (IC50) stood at 1.45 µM in series [1], 3.08 µM in series [2], 5.46 µM in series [3] and 3.94 µM in series [4]. The solubility entry in series [5] is reported as “Insoluble”.
On to `C=C1C(=O)[C@]23[C@H](OC(=O)[C@@H](N)CCSC)[C@H]1C[C@H](O)[C@H]2[C@]1(COC(C)=O)CCCC(C)(C)[C@H]1C[C@H]3OC.O=C(O)C(F)(F)F`, for which the half-maximal inhibitory concentration (IC50) is 1.6 µM in series [1], 3.1 µM in series [2], 1.96 µM in series [3] and 3.66 µM in series [4]. Besides, in series [5], the solubility entry was “Soluble”.
With `C=C1C(=O)[C@@]23[C@H](O)C[C@@H]4C(C)(C)CCC[C@@]4(COC(C)=O)[C@@H]2[C@@H](O)C[C@@H]1[C@H]3O` [FLEXICANLIN A], the IC50 in series [1] worked out at 5.07 µM; in series [2], 5.45 µM; in series [3], 6.77 µM; in series [4] it was 9.94 µM. In addition, in series [5], the solubility result is listed as “Insoluble”.
For `C=C1C(=O)[C@]23[C@H](OC(=O)[C@@H](N)CCc4ccccc4)[C@H]1C[C@H](O)[C@H]2[C@]1(COC(C)=O)CCCC(C)(C)[C@H]1C[C@H]3OC.O=C(O)C(F)(F)F`, the IC50 was found to be 2.98 µM in series [1], 1.81 µM in series [2], 3.35 µM in series [3] and 1.06 µM in series [4]. The solubility result in series [5] is “Soluble”.
Consider `C=C1C(=O)[C@]23[C@H](OC(=O)[C@H](C)N(C)C(=O)OC(C)(C)C)[C@H]1C[C@H](O)[C@H]2[C@]1(COC(C)=O)CCCC(C)(C)[C@H]1C[C@H]3OC`, for which the concentration for half-maximal inhibition (IC50) in series [1] came out at 1.04 µM; in series [2], 2.05 µM; in series [3] it was 5.41 µM; in series [4], 3.29 µM. Further, in series [5], the solubility entry is given as “Insoluble”.
On the same counts, the results for `C=C1C(=O)[C@]23[C@H](OC(=O)[C@H](Cc4ccccc4)NC(=O)OC(C)(C)C)[C@H]1C[C@H](O)[C@H]2[C@]1(COC(C)=O)CCCC(C)(C)[C@H]1C[C@H]3OC` are 2.44 µM, 3.06 µM, 6.22 µM, 3.22 µM and “Insoluble”.
As to `C=C1C(=O)[C@]23[C@H](OC(=O)[C@H](CC)NC(=O)OC(C)(C)C)[C@H]1C[C@H](O)[C@H]2[C@]1(COC(C)=O)CCCC(C)(C)[C@H]1C[C@H]3OC`, the IC50 is 1.74 µM in series [1], 3.09 µM in series [2], 4.81 µM in series [3] and 4.85 µM in series [4]. In series [5], the solubility result is “Insoluble”.
For the molecule `C=C1C(=O)[C@]23[C@H](OC(=O)[C@H](C)N)[C@H]1C[C@H](O)[C@H]2[C@]1(COC(C)=O)CCCC(C)(C)[C@H]1C[C@H]3OC.O=C(O)C(F)(F)F`, the IC50 in series [1] is 3.07 µM; in series [2], 7.37 µM; in series [3] it was 3.96 µM; in series [4] it was 10.5 µM. For the same molecule, in series [5], the solubility result is reported as “Soluble”.
Regarding `C=C1C(=O)[C@]23[C@H](OC(=O)[C@H](CCC)NC(=O)OC(C)(C)C)[C@H]1C[C@H](O)[C@H]2[C@]1(COC(C)=O)CCCC(C)(C)[C@H]1C[C@H]3OC`, the IC50 in series [1] came to 1.82 µM; in series [2] it was 2.59 µM; in series [3], 6.81 µM; in series [4], 4.93 µM. Moreover, in series [5], the solubility entry is given as “Insoluble”.
